From US20040176323A1, “Pharmaceutical composition comprising lysophophatidic acid” (priority 2001, published 2004)

Tests used:
[1] = test system: Sprague-Dawley rats with permanent focal cerebral ischemia by occlusion of middle cerebral artery; test: Rat model with permanent focal cerebral ischemia by occlusion of middle cerebral artery, infarct area and volume; assay type: in vivo; settings: 20 mg/kg subcutaneously at 1 hour before and 2 and 6 hours after surgery
From the text: To verify excellent preventive and therapeutic effects of LPA as an effective component of the pharmaceutical composition according to the present invention on stroke, the test using rat models induced with permanent focal cerebral ischemia by occlusion of middle cerebral artery, designed as follows, was undertaken.
Rat Model Induced with Permanent Focal Cerebral Ischemia by Occulusion of Middle Cerebral Artery
12 male Sprague-Dawley rats weighing about 250 to 269 g, were anaesthetized through inhalation of a mixed solution of 70% […] and 30% oxygen gas, the solution containing 2% isoflurane (Choongwae Pharma Corp., Korea), and then subjected to a slightly modified Nagasawa and Kogure's method (Nagasawa H and Kogure K (1989) Correlation between cerebral blood flow and histologic changes in a new rat model of middle cerebral artery occlusion. Stroke 20: 1037-1043), leading to occlusion of their right middle cerebral artery. Specifically, rats were anaesthetized, and then their cervix was incised along by the middle line of their neck. Then, after separately ligating their right common carotid artery and their external carotid artery carefully so as not to cause damage to their vagus nerve, the junction of their internal carotid artery were slightly cut and then a 17 mm long silicon rubber cylinder was carefully inserted thereinto, followed by ligating the internal carotid artery on the inserted cylinder. […]
At 24 hours after surgery, the rats of the test group and the control group were decapitated, and their brains were rapidly extracted, followed by washing with a cold saline solution. […] After the brain sections stained with TTC were fixed with 10% phosphate-buffered formalin, the area of cerebral infarcts on the posterior side of each section, which was visualized as an area of unstained tissue, was determined separately for cortex and striatum, by using an image analyzer.
In order to correct a change in the area of cerebral infarcts due to cerebral edema, the area of cerebral infarcts on each section was determined by subtracting the […] area in the right hemisphere with occluded middle cerebral artery from the area of the left hemisphere with unoccluded middle cerebral artery. Total areas of cerebral infarcts, obtained by summing the areas of infarcts in cortex and striatum that were measured at each brain section, were averaged, and the results were shown in FIG. 1. […]

[2] = test system: ICR mice with sepsis induced by cecal ligation and puncture; test: Cecal ligation and puncture (CLP) model test, survival in sepsis; assay type: in vivo; settings: 5 ICR mice; for 48-hour survival rate (%) (Mice survived/All mice): control 0% (0/5); for 24-hour survival rate (%) (Mice survived/All mice): control 20% (1/5)
From the text: Cecal Ligation and Puncture (CLP) Model Test
To verify excellent preventive and therapeutic effects of LPA as an effective ingredient of the pharmaceutical composition according to the present invention on sepsis, this test using CLP model animals in which sepsis was caused by inducing peritonitis by cecal ligation and puncture was undertaken.
After anesthetizing 15 ICR mice (weighing about 25 to 30 g; availably from MJ Ltd.) with pentobarbital, a right region of their abdomen was excised in 1 cm length to expose cecum, followed by ligating the lower area of ileocecal valve, making six punctures on the cecum with a 21 gauge needle and then suturing the abdomen, thereby inducing sepsis with the model mice.
At 2 and 4 hours after suturing, LPA(oleoyl-sn-glycerol-3-phosphate; Sigma Co.) dissolved in 10% DMSO solution was intraperitoneally administered to 5 ICR mice at a dose of about 10 mg/kg (Group A) and to another 5 ICR mice at a dose of about 50 mg/kg (Group B), and only a 10% DMSO solution was intraperitoneally administered to the other 5 ICR mice (Control group). The survival rates of ICR mice in groups A and B and control group were investigated in course of time.

[3] = 24 hours after surgery, mean±standard deviation, 4 test rats, p<0.001
[4] = Group A: about 10 mg/kg intraperitoneally at 2 and 4 hours after suturing
[5] = Group B: about 50 mg/kg intraperitoneally at 2 and 4 hours after suturing

oleoyl-sn-glycerol-3-phosphate [LPA] was tested, and the “reduction of the infarcted volume in cortex compared with control group rats” value [1, 3] was 44.6±3.6%, the “reduction of the infarcted volume in striatum compared with control group rats” value [1, 3] was 55.3±21.0% and the “reduction of total infarcted volume compared with control group rats” value [1, 3] was 47.8±7.1%. For the same substance, the “total area of infarcts (cortex and striatum) compared to control group rats” value ([1]; measured 24 hours after surgery, FIG. 1) was “noticeable reduction in total area of infarcts”, the “48-hour survival rate (%) (Mice survived/All mice)” value [2, 4] was 40% (2/5) and the “24-hour survival rate (%) (Mice survived/All mice)” value [2, 4] was 60% (3/5). The “48-hour survival rate (%) (Mice survived/All mice)” value [2, 5] was 40% (2/5) and the “24-hour survival rate (%) (Mice survived/All mice)” value [2, 5] was 60% (3/5).
